Laboratory results taken from ChEMBL document CHEMBL5131570, “Discovery of Potent Small-Molecule USP8 Inhibitors for the Treatment of Breast Cancer through Regulating ERα Expression” (J Med Chem, 2022).
Active and inactive are the calls of the source. No cut-off for these calls is given here.

Experiments:
MCF7 [1] = test: Induction of apoptosis in human MCF7 cells assessed as increase in apoptotic cells at 1 uM incubated for 12 hrs by AnnexinV-FITC/propidium iodide staining based flow cytometry relative to control (reference value: 2.00 %); type: functional
[2] = Toxicity in BALB/c mouse xenografted with human MCF7 cells assessed as effect on lung at 5 to 20 mg/kg, […] every other day measured after 14 days by hematoxylin and eosin staining based analysis; type: organism-based; conditions: in vivo, 336 h, dose 5-20 mg/kg, time 14 day
MCF7 [3] = test: Induction of apoptosis in human MCF7 cells assessed as increase in apoptotic cells at 2 uM incubated for 12 hrs by AnnexinV-FITC/propidium iodide staining based flow cytometry relative to control (reference value: 2.00 %); type: functional
MCF7 [4] = test: Induction of apoptosis in human MCF7 cells assessed as reduction in ErbB2 expression level up to 5 uM incubated for 24 hrs by Western blotting analysis; type: functional, cell-based
[5] = target: T1, Ubiquitin carboxyl-terminal hydrolase 8 (Homo sapiens, UniProt P40818); test: Inhibition of N-terminal His6-tagged USP8 (unknown origin) catalytic domain (734 to 1110 residues) expressed in Escherichia coli BL21 (DE3) cells assessed as deubiquitinating activity using ubiquitin-rhodamine -110 as substrate incubated for 30 mins followed by substrate addition measured after 30 mins by ubiquitin-rhodamine-110 based fluorometric assay
T1 sequence (P40818 whole entry): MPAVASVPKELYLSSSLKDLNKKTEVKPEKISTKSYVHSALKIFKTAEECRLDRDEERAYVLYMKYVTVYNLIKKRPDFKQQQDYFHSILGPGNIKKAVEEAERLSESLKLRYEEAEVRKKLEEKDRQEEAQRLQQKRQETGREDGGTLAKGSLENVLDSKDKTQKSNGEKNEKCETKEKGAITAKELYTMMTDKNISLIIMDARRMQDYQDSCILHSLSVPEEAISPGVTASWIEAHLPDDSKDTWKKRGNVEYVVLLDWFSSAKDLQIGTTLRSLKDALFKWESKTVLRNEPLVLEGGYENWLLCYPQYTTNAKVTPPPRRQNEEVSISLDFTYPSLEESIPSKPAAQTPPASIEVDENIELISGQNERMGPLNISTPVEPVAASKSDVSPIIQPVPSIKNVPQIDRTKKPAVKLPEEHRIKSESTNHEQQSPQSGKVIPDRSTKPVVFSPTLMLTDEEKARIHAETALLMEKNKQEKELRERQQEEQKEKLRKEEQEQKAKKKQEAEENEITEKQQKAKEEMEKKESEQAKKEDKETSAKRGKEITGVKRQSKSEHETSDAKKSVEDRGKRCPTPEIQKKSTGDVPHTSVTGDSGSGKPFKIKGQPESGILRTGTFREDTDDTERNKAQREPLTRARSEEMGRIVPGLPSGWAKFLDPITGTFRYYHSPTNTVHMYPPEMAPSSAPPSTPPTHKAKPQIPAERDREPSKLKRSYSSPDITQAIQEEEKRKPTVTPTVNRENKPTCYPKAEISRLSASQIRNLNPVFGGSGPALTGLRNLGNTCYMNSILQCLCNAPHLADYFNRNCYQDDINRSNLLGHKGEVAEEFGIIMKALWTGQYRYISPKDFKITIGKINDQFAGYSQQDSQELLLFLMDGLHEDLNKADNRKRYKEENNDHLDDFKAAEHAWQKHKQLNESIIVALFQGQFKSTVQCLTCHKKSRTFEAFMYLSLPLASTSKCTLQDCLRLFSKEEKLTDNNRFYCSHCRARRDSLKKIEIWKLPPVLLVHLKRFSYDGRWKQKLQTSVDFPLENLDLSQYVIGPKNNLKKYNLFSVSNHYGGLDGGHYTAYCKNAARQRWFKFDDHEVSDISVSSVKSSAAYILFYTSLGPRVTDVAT

MCF7 [6] = test: Antitumor activity against human MCF7 cells xenografted in BALB/c mouse assessed as reduction of EGFR phosphorylation in tumor tissue at 5 to 20 mg/kg, ip administered via gavage every other day for 14 days by immunohistochemistry analysis; type: functional, organism-based; conditions: dose 5-20 mg/kg, time 14.0 day
[7] = Toxicity in BALB/c mouse xenografted with human MCF7 cells assessed as effect on heart at 5 to 20 mg/kg, […] every other day measured after 14 days by hematoxylin and eosin staining based analysis; type: organism-based; conditions: in vivo, 336 h, dose 5-20 mg/kg, time 14 day
Homo sapiens = species: Homo sapiens; test: Selectivity ratio of IC50 for USP2 (unknown origin) catalytic domain to IC50 for USP8 (unknown origin) catalytic domain
[8] = Toxicity in BALB/c mouse xenografted with human MCF7 cells assessed as effect on liver at 5 to 20 mg/kg, […] every other day measured after 14 days by hematoxylin and eosin staining based analysis; type: organism-based; conditions: in vivo, 336 h, dose 5-20 mg/kg, time 14 day
MCF7 [9] = test: Downregulation of progesterone receptor mRNA level in human MCF7 cells up to 5 uM measured after 24 hrs by RT-qPCR analysis; type: functional, cell-based
MCF7 [10] = test: Antitumor activity against human MCF7 cells xenografted in BALB/c mouse assessed as reduction of ErbB2 phosphorylation in tumor tissue at 5 to 20 mg/kg, ip administered via gavage every other day for 14 days by immunohistochemistry analysis; type: functional, organism-based; conditions: dose 5-20 mg/kg, time 14.0 day
MCF7 [11] = test: Antitumor activity against human MCF7 cells xenografted in BALB/c mouse assessed as reduction of ERalpha phosphorylation in tumor tissue at 5 to 20 mg/kg, ip administered via gavage every other day for 14 days by immunohistochemistry analysis; type: functional, organism-based; conditions: dose 5-20 mg/kg, time 14.0 day
MCF7 [12] = test: Induction of apoptosis in human MCF7 cells assessed as reduction in ErbB3 expression level up to 5 uM incubated for 24 hrs by Western blotting analysis; type: functional, cell-based
MCF7 [13] = test: Downregulation of ERalpha expression in human MCF7 cells assessed as protein stability by measuring reduction in half life measured up to 24 hrs in presence of cycloheximide by Western blotting analysis; type: functional, cell-based
MCF7 [14] = test: Antitumor activity against human MCF7 cells xenografted in BALB/c mouse assessed as inhibition of tumor growth at 20 mg/kg, ip administered via gavage every other day for 14 days; type: functional, organism-based; conditions: time 14.0 day
[15] = target: T2, Ubiquitin carboxyl-terminal hydrolase 8 (Homo sapiens) (UniProt P40818); test: Inhibition of N-terminal His6-tagged USP8 catalytic domain (734 to 1110 residues) in HEK293T cell lysates up to 100 uM in presence of HA-Ub-VS probe by HA antibody based Western blotting assay; type: subcellular
T2 sequence (whole entry): T1 sequence (P40818 whole entry)

MCF7 [16] = test: Induction of apoptosis in human MCF7 cells assessed as increase in apoptotic cells at 5 uM incubated for 12 hrs by AnnexinV-FITC/propidium iodide staining based flow cytometry relative to control (reference value: 2.00 %); type: functional
[17] = target: T2, Ubiquitin carboxyl-terminal hydrolase 8 (Homo sapiens); test: Inhibition of N-terminal His6-tagged USP8 catalytic domain (734 to 1110 residues) in HEK293T intact cells up to 100 uM in presence of HA-Ub-VS probe by HA antibody based Western blotting assay; type: cell-based
[18] = target: T2, Ubiquitin carboxyl-terminal hydrolase 8 (Homo sapiens); test: Inhibition of N-terminal His6-tagged USP8 catalytic domain (734 to 1110 residues) in HEK293T cell lysates up to 100 uM in presence of HA-Ub-VS probe by USP8 antibody based Western blotting assay; type: subcellular
MCF7 [19] = test: Induction of apoptosis in human MCF7 cells assessed as increase in apoptotic cells at 0.5 uM incubated for 12 hrs by AnnexinV-FITC/propidium iodide staining based flow cytometry relative to control (reference value: 2.00 %); type: functional

IC50 [5]: 1.2 µM
Ratio IC50 (Homo sapiens): 49
inhibition [15]: Active
inhibition [17]: Active
inhibition [18]: Active
Structure (SMILES): Cc1n[nH]c(C)c1Oc1c(O)cc(O)c2c(=O)cc(-c3ccc(N4CCN(c5ccccn5)CC4)cc3)oc12
Activity (MCF7 [1]): 3.45%
Activity [2]: Non-Toxic
Activity (MCF7 [3]): 12.57%
Activity (MCF7 [4]): Active
Activity (MCF7 [6]): Active
Activity [7]: Non-Toxic
Activity [8]: Non-Toxic
Activity (MCF7 [9]): Active
Activity (MCF7 [10]): Active
Activity (MCF7 [11]): Active
Activity (MCF7 [12]): Active
Activity (MCF7 [13]): Active
Activity (MCF7 [14]): Active
Activity (MCF7 [16]): 14.46%
Activity (MCF7 [19]): 2.5%
